Experimental data published in ChEMBL document CHEMBL6087464, “Design, Synthesis, and Biological Evaluation of 3,4-Dihydroisoquinolin-1(2H)-one Derivatives as Protein Arginine Methyltransferase 5 Inhibitors for the Treatment of Non-Hodgkin's Lymphoma” (J Med Chem, 2025).

Tests used:
[1] = test system: Z-138; assay: Cell cycle arrest in human Z138 cells assessed as accumulation of cells at G0/G1 phase incubated for 168 hrs by RNase A/PI staining based flow cytometric analysis; type: functional; settings: dose 0.4-50 nM
[2] = test system: Z-138; assay: Induction of apoptosis in human Z138 cells assessed as necrotic cells at 50.0 nM incubated for 168 hrs by Annexin V-FITC/PI staining based flow cytometric analysis (reference value: 3.54 %); type: functional
[3] = MRT (0 to t) in Sprague-Dawley rat at 2 mg/kg, iv by LC-MS/MS analysis; type: ADME, organism-based; settings: in vivo
[4] = test system: Z-138; assay: Induction of apoptosis in human Z138 cells assessed as viable cells at 10.0 nM incubated for 168 hrs by Annexin V-FITC/PI staining based flow cytometric analysis (reference value: 94.4 %); type: functional; settings: read-out: Activity
[5] = Hematological toxicity in human CD34-positive hematopoietic stem/progenitor cell supplemented with myeloid lineage assessed as reduction in cell viability incubated for 14 days by luminometric analysis; type: cell-based
[6] = target: Protein arginine N-methyltransferase 3 (Homo sapiens, UniProt O60678); assay: Inhibition of PRMT3 (unknown origin)
[7] = test system: Z-138; assay: Induction of apoptosis in human Z138 cells assessed as necrotic cells at 0.4 nM incubated for 168 hrs by Annexin V-FITC/PI staining based flow cytometric analysis (reference value: 3.54 %); type: functional
[8] = test system: Z-138; assay: Induction of apoptosis in human Z138 cells assessed as early apoptotic cells at 50.0 nM incubated for 168 hrs by Annexin V-FITC/PI staining based flow cytometric analysis (reference value: 1.68 %); type: functional
[9] = Volume of distribution in Sprague-Dawley rat at 2 mg/kg, iv by LC-MS/MS analysis; type: ADME, organism-based; settings: in vivo
[10] = test system: Z-138; assay: Induction of apoptosis in human Z138 cells assessed as viable cells at 0.4 nM incubated for 168 hrs by Annexin V-FITC/PI staining based flow cytometric analysis (reference value: 94.4 %); type: functional; settings: read-out: Activity
[11] = AUC (0 to t) in Sprague-Dawley rat at 10 mg/kg, po by LC-MS/MS analysis; type: ADME, organism-based; settings: Sprague-Dawley, in vivo
[12] = target: T1, Histone-arginine methyltransferase CARM1 (Homo sapiens, UniProt Q86X55); assay: Inhibition of PRMT4 (unknown origin)
T1 sequence (Q86X55 whole entry): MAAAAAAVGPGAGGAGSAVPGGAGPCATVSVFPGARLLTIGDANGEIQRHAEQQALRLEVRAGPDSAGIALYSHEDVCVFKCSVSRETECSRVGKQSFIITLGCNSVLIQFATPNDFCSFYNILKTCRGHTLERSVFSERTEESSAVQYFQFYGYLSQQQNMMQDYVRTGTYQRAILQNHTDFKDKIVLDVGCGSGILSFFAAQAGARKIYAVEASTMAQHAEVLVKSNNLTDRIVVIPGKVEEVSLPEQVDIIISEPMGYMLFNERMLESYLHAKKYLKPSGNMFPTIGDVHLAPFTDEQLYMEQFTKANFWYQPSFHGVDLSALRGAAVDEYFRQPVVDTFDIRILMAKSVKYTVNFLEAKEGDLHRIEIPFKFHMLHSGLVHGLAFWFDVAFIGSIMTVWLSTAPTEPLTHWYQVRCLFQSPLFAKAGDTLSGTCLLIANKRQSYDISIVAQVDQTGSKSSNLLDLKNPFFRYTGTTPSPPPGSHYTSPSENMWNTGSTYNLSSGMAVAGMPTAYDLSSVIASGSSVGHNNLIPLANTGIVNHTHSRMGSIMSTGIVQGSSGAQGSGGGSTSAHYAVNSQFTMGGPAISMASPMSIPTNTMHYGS

[13] = target: T2, Protein arginine N-methyltransferase 7 (Homo sapiens, UniProt Q9NVM4); assay: Inhibition of PRMT7 (unknown origin)
T2 sequence (Q9NVM4 whole entry): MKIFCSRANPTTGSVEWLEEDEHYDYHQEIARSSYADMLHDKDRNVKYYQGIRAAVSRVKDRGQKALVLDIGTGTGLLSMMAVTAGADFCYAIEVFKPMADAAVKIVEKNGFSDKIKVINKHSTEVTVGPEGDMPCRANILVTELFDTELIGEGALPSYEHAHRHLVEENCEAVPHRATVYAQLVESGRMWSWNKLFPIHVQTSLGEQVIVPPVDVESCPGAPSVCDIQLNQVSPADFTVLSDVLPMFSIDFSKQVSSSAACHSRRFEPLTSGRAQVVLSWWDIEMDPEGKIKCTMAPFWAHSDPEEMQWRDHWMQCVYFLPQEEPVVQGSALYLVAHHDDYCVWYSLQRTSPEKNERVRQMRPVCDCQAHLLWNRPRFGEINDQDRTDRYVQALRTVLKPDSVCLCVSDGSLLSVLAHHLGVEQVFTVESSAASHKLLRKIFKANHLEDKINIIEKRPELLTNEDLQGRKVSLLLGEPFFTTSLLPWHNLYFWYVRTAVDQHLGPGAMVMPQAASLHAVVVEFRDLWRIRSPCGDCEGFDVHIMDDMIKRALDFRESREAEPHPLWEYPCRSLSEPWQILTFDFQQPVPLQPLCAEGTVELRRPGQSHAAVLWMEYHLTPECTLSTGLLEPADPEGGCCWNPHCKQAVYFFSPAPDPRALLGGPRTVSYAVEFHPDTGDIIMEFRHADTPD

[14] = test system: Z-138; assay: Induction of apoptosis in human Z138 cells assessed as necrotic cells at 10.0 nM incubated for 168 hrs by Annexin V-FITC/PI staining based flow cytometric analysis (reference value: 3.54 %); type: functional
[15] = test system: Z-138; assay: Induction of apoptosis in human Z138 cells assessed as late apoptotic cells at 50.0 nM incubated for 168 hrs by Annexin V-FITC/PI staining based flow cytometric analysis (reference value: 0.37 %); type: functional
[16] = target: Voltage-gated inwardly rectifying potassium channel KCNH2 (Homo sapiens, UniProt Q12809); assay: Inhibition of human ERG; type: toxicity
[17] = test system: Z-138; assay: Induction of apoptosis in human Z138 cells assessed as necrotic cells at 2.0 nM incubated for 168 hrs by Annexin V-FITC/PI staining based flow cytometric analysis (reference value: 3.54 %); type: functional
[18] = test system: Z-138; assay: Induction of apoptosis in human Z138 cells assessed as early apoptotic cells at 10.0 nM incubated for 168 hrs by Annexin V-FITC/PI staining based flow cytometric analysis (reference value: 1.68 %); type: functional
[19] = Oral bioavailability in Sprague-Dawley rat at 10 mg/kg by LC-MS/MS analysis; type: ADME, organism-based; settings: in vivo
[20] = MRT (0 to t) in Sprague-Dawley rat at 10 mg/kg, po by LC-MS/MS analysis; type: ADME, organism-based; settings: in vivo
[21] = target: Protein arginine N-methyltransferase 8 (Homo sapiens, UniProt Q9NR22); assay: Inhibition of PRMT8 (unknown origin)
[22] = test system: Z-138; assay: Cell cycle arrest in human Z138 cells assessed as increase in DNA content at 0.4 nM incubated for 168 hrs by RNase A/PI staining based flow cytometric analysis relative to control; type: functional
[23] = target: Protein arginine N-methyltransferase 6 (Homo sapiens, UniProt Q96LA8); assay: Inhibition of PRMT6 (unknown origin)
[24] = Half-life in Sprague-Dawley rat at 2 mg/kg, iv by LC-MS/MS analysis; type: ADME, organism-based; settings: in vivo

Chain of Protein arginine N-methyltransferase 6 (Q96LA8 whole entry): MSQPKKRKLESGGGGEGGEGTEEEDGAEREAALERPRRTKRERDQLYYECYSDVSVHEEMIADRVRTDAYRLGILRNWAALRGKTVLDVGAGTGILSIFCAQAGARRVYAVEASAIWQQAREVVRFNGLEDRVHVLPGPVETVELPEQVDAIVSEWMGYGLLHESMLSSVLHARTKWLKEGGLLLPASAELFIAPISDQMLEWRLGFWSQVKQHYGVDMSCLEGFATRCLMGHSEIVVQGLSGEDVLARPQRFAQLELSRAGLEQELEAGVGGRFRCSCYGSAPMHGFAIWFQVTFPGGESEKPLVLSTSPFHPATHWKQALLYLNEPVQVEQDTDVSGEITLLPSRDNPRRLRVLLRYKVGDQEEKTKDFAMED
Chain of Protein arginine N-methyltransferase 8 (Q9NR22 whole entry): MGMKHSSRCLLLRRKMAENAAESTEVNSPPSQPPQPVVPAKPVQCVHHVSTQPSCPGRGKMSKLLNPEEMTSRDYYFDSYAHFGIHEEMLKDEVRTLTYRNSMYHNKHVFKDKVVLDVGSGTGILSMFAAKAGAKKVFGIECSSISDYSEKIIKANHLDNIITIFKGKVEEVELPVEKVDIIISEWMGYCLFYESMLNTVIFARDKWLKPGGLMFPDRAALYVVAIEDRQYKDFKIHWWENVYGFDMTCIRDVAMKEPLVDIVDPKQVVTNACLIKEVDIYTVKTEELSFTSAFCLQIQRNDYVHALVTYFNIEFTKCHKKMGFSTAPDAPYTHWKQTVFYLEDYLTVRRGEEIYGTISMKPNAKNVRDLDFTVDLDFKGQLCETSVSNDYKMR
Chain of Protein arginine N-methyltransferase 3 (O60678 whole entry): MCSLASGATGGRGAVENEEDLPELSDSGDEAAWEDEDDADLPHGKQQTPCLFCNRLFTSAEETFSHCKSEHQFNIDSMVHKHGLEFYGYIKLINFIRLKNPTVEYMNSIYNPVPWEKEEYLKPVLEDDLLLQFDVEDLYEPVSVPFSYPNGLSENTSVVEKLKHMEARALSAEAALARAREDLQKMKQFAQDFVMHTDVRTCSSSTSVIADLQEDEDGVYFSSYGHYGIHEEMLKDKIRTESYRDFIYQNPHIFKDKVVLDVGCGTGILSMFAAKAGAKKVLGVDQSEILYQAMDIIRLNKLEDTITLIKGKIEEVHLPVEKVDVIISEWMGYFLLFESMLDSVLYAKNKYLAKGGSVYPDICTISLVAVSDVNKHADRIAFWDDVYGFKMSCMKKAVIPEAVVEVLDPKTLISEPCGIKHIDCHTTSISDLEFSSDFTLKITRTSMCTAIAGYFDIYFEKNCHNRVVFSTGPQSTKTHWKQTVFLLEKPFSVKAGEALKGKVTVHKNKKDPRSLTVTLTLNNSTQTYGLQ
Chain of Voltage-gated inwardly rectifying potassium channel KCNH2 (Q12809 whole entry): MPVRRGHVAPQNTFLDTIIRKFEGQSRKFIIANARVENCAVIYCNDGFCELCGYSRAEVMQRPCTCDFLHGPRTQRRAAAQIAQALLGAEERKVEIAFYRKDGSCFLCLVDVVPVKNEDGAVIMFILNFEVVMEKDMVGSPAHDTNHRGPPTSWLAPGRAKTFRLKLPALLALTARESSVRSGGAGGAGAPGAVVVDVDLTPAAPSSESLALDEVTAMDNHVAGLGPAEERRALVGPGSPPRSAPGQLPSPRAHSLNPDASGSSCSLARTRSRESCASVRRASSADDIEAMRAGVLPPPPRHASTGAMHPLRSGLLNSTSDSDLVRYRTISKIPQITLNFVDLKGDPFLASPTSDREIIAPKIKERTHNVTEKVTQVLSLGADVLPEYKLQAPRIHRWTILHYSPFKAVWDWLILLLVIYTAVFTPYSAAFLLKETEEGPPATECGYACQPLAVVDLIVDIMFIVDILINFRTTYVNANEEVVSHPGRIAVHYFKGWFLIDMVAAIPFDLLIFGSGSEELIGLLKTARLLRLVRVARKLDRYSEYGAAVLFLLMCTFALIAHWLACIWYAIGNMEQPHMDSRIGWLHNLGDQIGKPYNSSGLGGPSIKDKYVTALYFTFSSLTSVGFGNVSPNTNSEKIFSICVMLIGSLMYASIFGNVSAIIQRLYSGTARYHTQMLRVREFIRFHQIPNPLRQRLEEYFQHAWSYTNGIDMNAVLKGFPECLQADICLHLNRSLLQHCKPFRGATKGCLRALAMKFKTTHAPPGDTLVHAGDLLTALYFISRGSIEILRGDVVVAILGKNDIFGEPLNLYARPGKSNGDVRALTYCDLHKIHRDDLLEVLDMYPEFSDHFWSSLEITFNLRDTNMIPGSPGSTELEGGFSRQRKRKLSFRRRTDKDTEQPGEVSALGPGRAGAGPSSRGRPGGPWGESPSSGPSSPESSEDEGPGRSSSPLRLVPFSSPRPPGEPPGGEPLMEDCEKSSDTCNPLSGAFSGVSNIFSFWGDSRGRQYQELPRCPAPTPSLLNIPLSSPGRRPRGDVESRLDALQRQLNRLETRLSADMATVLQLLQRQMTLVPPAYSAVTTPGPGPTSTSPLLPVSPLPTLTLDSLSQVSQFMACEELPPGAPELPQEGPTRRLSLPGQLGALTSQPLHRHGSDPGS

Structure (SMILES)	Activity [1]	Activity [2]	MRT last [3]	viability at 0.01 µM [4]	IC50 at 14 days [5]	IC50 [6]	Activity [7]	Activity [8]	Vd [9]	viability at 0.0004 µM [10]	AUC(0-t) [11]	IC50 [12]	IC50 [13]	Activity [14]	Activity [15]	IC50 [16]	Activity [17]	Activity [18]	bioavailability [19]	MRT last [20]	other results
CC(=O)N1CCC(Nc2cc(C(=O)NC[C@H](O)CN3CCc4ccccc4C3)ncn2)CC1 [PEMRAMETOSTAT]	Dose-dependent-effect	5.13%	24 min	86%	0.222 µM	> 10 µM	2.52%	34.1%	1.4 L/kg	95.6%	404 ng·h/mL	> 10 µM	> 10 µM	5.31%	7.38%	> 15 µM	2.64%	7.12%	13.5%	66 min	IC50 [21]: > 10 µM; Activity [22]: 50.9%; IC50 [23]: > 10 µM; half-life [24]: 18 min
CC(=O)N1CC2(CC(Nc3cc4c(cn3)C3(CC3)CN(C[C@H](O)CN3CCc5ccccc5C3)C4=O)C2)C1	Dose-dependent-effect	2.87%	30 min	9.21%	0.511 µM	> 10 µM	2.41%	78.2%	1.4 L/kg	95.3%	1030 ng·h/mL	> 10 µM	> 10 µM	3.87%	11.4%	> 15 µM	6.68%	54.5%	26.7%	102 min	IC50 [21]: > 10 µM; Activity [22]: 52.4%; IC50 [23]: > 10 µM; half-life [24]: 24 min
